{
  "source": "ChEMBL document CHEMBL3351699",
  "about": "“Diarylthiazole: an antimycobacterial scaffold potentially targeting PrrB-PrrA two-component system” (J Med Chem, 2014)",
  "key": {"[1]": {"tested_on": "Mycobacterium tuberculosis", "experiment": "Antimicrobial activity against Mycobacterium tuberculosis H37Rv ATCC 27294 assessed as growth inhibition after 5 days by microdilution method", "format": "functional", "details": "H37Rv ATCC 27294, 120 h"}, "[2]": {"tested_on": "Mycobacterium tuberculosis", "experiment": "Antimicrobial activity against clinical isolate Mycobacterium tuberculosis H37Rv ATCC 27294 assessed as growth inhibition after 7 days by turbidometry", "format": "functional", "details": "H37Rv ATCC 27294, 168 h"}, "[3]": {"tested_on": "Mycobacterium tuberculosis", "experiment": "Antimicrobial activity against clinical isolate Mycobacterium tuberculosis ATCC25618 assessed as growth inhibition after 7 days by turbidometry", "format": "functional", "details": "ATCC25618, 168 h"}, "[4]": {"tested_on": "Mycobacterium tuberculosis", "experiment": "Antimicrobial activity against clinical isolate Mycobacterium tuberculosis Erdman assessed as growth inhibition after 7 days by turbidometry", "format": "functional", "details": "168 h"}, "[5]": {"tested_on": "Mycobacterium tuberculosis", "experiment": "Antimicrobial activity against clinical isolate Mycobacterium tuberculosis Beijing assessed as growth inhibition after 7 days by turbidometry", "format": "functional", "details": "168 h"}, "[6]": {"tested_on": "Mycobacterium tuberculosis", "experiment": "Antimicrobial activity against clinical isolate Mycobacterium tuberculosis Harlingen assessed as growth inhibition after 7 days by turbidometry", "format": "functional", "details": "168 h"}, "[7]": {"tested_on": "Mycobacterium tuberculosis", "experiment": "Antimicrobial activity against clinical isolate Mycobacterium tuberculosis ATCC35811 assessed as growth inhibition after 7 days by turbidometry", "format": "functional", "details": "ATCC35811, 168 h"}, "[8]": {"tested_on": "Mycobacterium tuberculosis", "experiment": "Antimicrobial activity against clinical isolate Mycobacterium tuberculosis DKU76 assessed as growth inhibition after 7 days by turbidometry", "format": "functional", "details": "DKU76, 168 h"}, "[9]": {"tested_on": "Mycobacterium tuberculosis", "experiment": "Antimicrobial activity against clinical isolate Mycobacterium tuberculosis DKU97A assessed as growth inhibition after 7 days by turbidometry", "format": "functional", "details": "168 h"}, "[10]": {"tested_on": "Mycobacterium tuberculosis", "experiment": "Antimicrobial activity against clinical isolate Mycobacterium tuberculosis DKU211 assessed as growth inhibition after 7 days by turbidometry", "format": "functional", "details": "DKU211, 168 h"}, "[11]": {"tested_on": "Mycobacterium tuberculosis", "experiment": "Antimicrobial activity against clinical isolate Mycobacterium tuberculosis DKU220 assessed as growth inhibition after 7 days by turbidometry", "format": "functional", "details": "DKU220, 168 h"}, "[12]": {"tested_on": "Mycobacterium tuberculosis", "experiment": "Antimicrobial activity against clinical isolate Mycobacterium tuberculosis JAL assessed as growth inhibition after 7 days by turbidometry", "format": "functional", "details": "168 h"}, "[13]": {"tested_on": "Mycobacterium tuberculosis", "experiment": "Bactericidal activity against Mycobacterium tuberculosis H37Rv ATCC 27294 after 5 days by microdilution method", "format": "functional", "details": "H37Rv ATCC 27294, 120 h"}, "[14]": {"target": "T1, Enoyl-[acyl-carrier-protein] reductase [NADH] (Mycobacterium tuberculosis, UniProt P9WGR1)", "T1 sequence (P9WGR1 whole entry)": "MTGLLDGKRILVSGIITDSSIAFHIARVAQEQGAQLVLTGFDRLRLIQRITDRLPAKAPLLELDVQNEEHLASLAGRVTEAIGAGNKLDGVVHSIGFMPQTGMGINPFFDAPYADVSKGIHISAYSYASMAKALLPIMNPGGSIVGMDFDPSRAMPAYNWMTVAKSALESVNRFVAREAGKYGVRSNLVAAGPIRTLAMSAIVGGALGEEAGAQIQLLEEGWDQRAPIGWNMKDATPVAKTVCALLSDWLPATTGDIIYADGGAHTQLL", "experiment": "Inhibition of Mycobacterium tuberculosis InhA using NADH and dodecyl coA substrate by LC-MS/MS method"}, "[15]": {"experiment": "Solubility of the compound", "format": "physicochemical"}},
  "data": [
    {"molecule": "CCCc1cc(-c2nc(-c3ccccc3OC)cs2)ccn1", "values": [
      {"measurement": "MIC80", "setting": "[1]", "result": 1, "unit": "µg/mL"}
    ]},
    {"molecule": "O=c1cc(-c2nc(-c3ccc(Cl)cc3)cs2)cc[nH]1", "values": [
      {"measurement": "MIC80", "setting": "[1]", "result": "> 32", "unit": "µg/mL"}
    ]},
    {"molecule": "COCc1cc(-c2nc(-c3ccc(Cl)cc3)cs2)ccn1", "values": [
      {"measurement": "MIC80", "setting": "[1]", "result": 4, "unit": "µg/mL"}
    ]},
    {"molecule": "Clc1ccc(-c2csc(-c3ccnc(C4CC4)c3)n2)cc1", "values": [
      {"measurement": "MIC80", "setting": "[1]", "result": 4, "unit": "µg/mL"}
    ]},
    {"molecule": "CCCc1cc(-c2nc(-c3ccc(OCCOC)cc3)cs2)ccn1", "values": [
      {"measurement": "MIC80", "setting": "[1]", "result": 1, "unit": "µg/mL"}
    ]},
    {"molecule": "CCCc1cc(-c2ncc(-c3ccnc(OC)c3)s2)ccn1", "values": [
      {"measurement": "MIC80", "setting": "[1]", "result": 32, "unit": "µg/mL"}
    ]},
    {"molecule": "CCCc1cc(-c2nc(-c3ccccc3)cs2)ccn1", "values": [
      {"measurement": "MIC80", "setting": "[1]", "result": 1, "unit": "µg/mL"}
    ]},
    {"molecule": "Clc1ccc(-c2csc(-c3ccnc(N4CCOCC4)c3)n2)cc1", "values": [
      {"measurement": "MIC80", "setting": "[1]", "result": "> 32", "unit": "µg/mL"}
    ]},
    {"molecule": "CCCc1cc(-c2nc(-c3cccc(OC)c3)cs2)ccn1", "values": [
      {"measurement": "MIC80", "setting": "[1]", "result": 0.5, "unit": "µg/mL"},
      {"measurement": "MIC80", "setting": "[2]", "result": 0.25, "unit": "µg/mL"},
      {"measurement": "MIC80", "setting": "[3]", "result": 0.25, "unit": "µg/mL"},
      {"measurement": "MIC80", "setting": "[4]", "result": 0.25, "unit": "µg/mL"},
      {"measurement": "MIC80", "setting": "[5]", "result": 0.13, "unit": "µg/mL"},
      {"measurement": "MIC80", "setting": "[6]", "result": 0.13, "unit": "µg/mL"},
      {"measurement": "MIC80", "setting": "[7]", "result": 0.5, "unit": "µg/mL"},
      {"measurement": "MIC80", "setting": "[8]", "result": 1, "unit": "µg/mL"},
      {"measurement": "MIC80", "setting": "[9]", "result": 0.5, "unit": "µg/mL"},
      {"measurement": "MIC80", "setting": "[10]", "result": 1, "unit": "µg/mL"},
      {"measurement": "MIC80", "setting": "[11]", "result": 1, "unit": "µg/mL"},
      {"measurement": "MIC80", "setting": "[12]", "result": 0.5, "unit": "µg/mL"}
    ]},
    {"molecule": "CCCc1cc(-c2nc(-c3ccc(C(F)(F)F)cc3)cs2)ccn1", "values": [
      {"measurement": "MIC80", "setting": "[1]", "result": 1, "unit": "µg/mL"}
    ]},
    {"molecule": "CCCc1cc(-c2nc(-c3ccnc(OCCN(C)C)c3)cs2)ccn1", "values": [
      {"measurement": "MIC80", "setting": "[1]", "result": 8, "unit": "µg/mL"}
    ]},
    {"molecule": "CCCc1cc(-c2nc(-c3ccc(Cl)cc3)cs2)ccn1", "values": [
      {"measurement": "MIC80", "setting": "[1]", "result": 1, "unit": "µg/mL"},
      {"measurement": "MBC", "setting": "[13]", "result": 2, "unit": "µg/mL"}
    ]},
    {"molecule": "CCCc1cc(-c2nc(-c3ccccn3)cs2)ccn1", "values": [
      {"measurement": "MIC80", "setting": "[1]", "result": 4, "unit": "µg/mL"}
    ]},
    {"molecule": "CCCc1cc(-c2nc(-c3ccc(NC(=O)NCC)cc3)cs2)ccn1", "values": [
      {"measurement": "MIC80", "setting": "[1]", "result": 1, "unit": "µg/mL"}
    ]},
    {"molecule": "CCCc1cc(-c2nc(-c3cncnc3)cs2)ccn1", "values": [
      {"measurement": "MIC80", "setting": "[1]", "result": 4, "unit": "µg/mL"}
    ]},
    {"molecule": "CCCc1cc(-c2nc(-c3ccc(Cl)cc3)c(C)s2)ccn1", "values": [
      {"measurement": "MIC80", "setting": "[1]", "result": 4, "unit": "µg/mL"}
    ]},
    {"molecule": "CO[C@H]1/C=C/O[C@@]2(C)Oc3c(C)c(O)c4c(O)c(c(/C=N/N5CCN(C)CC5)c(O)c4c3C2=O)NC(=O)/C(C)=C\\C=C\\[C@H](C)[C@H](O)[C@@H](C)[C@@H](O)[C@@H](C)[C@H](OC(C)=O)[C@@H]1C", "note": "[RIFAMPIN]", "values": [
      {"measurement": "IC50", "setting": "[14]", "result": 30, "unit": "nM"},
      {"measurement": "MIC80", "setting": "[2]", "result": 0.007, "unit": "µg/mL"},
      {"measurement": "MIC80", "setting": "[3]", "result": 0.003, "unit": "µg/mL"},
      {"measurement": "MIC80", "setting": "[4]", "result": 0.003, "unit": "µg/mL"},
      {"measurement": "MIC80", "setting": "[5]", "result": 0.003, "unit": "µg/mL"},
      {"measurement": "MIC80", "setting": "[6]", "result": 0.003, "unit": "µg/mL"},
      {"measurement": "MIC80", "setting": "[7]", "result": 0.003, "unit": "µg/mL"},
      {"measurement": "MIC80", "setting": "[8]", "result": 0.003, "unit": "µg/mL"},
      {"measurement": "MIC80", "setting": "[9]", "result": 0.003, "unit": "µg/mL"},
      {"measurement": "MIC80", "setting": "[10]", "result": 0.003, "unit": "µg/mL"},
      {"measurement": "MIC80", "setting": "[11]", "result": 0.003, "unit": "µg/mL"},
      {"measurement": "MIC80", "setting": "[12]", "result": 0.003, "unit": "µg/mL"}
    ]},
    {"molecule": "CCCc1cc(-c2nc(-c3ccc(C)cc3)cs2)ccn1", "note": "[FATOSTATIN]", "values": [
      {"measurement": "MIC80", "setting": "[1]", "result": 1, "unit": "µg/mL"},
      {"measurement": "solubility", "setting": "[15]", "result": 0.4, "unit": "µM"}
    ]},
    {"molecule": "CCCc1cc(-c2nc(-c3ccc(Cl)cc3)c(C(N)=O)s2)ccn1", "values": [
      {"measurement": "MIC80", "setting": "[1]", "result": "> 32", "unit": "µg/mL"}
    ]},
    {"molecule": "CCc1cc(-c2ncc(-c3ccnc(OC)c3)s2)ccn1", "values": [
      {"measurement": "MBC", "setting": "[13]", "result": 0.5, "unit": "µg/mL"}
    ]},
    {"molecule": "CCCc1cc(-c2ncc(-c3ccncc3)s2)ccn1", "values": [
      {"measurement": "MIC80", "setting": "[1]", "result": 32, "unit": "µg/mL"}
    ]},
    {"molecule": "CCCc1cc(-c2nc(-c3ccc(C(=O)NS(C)(=O)=O)cc3)cs2)ccn1", "values": [
      {"measurement": "MIC80", "setting": "[1]", "result": 32, "unit": "µg/mL"}
    ]},
    {"molecule": "CN1CCC(c2nc(-c3ccc(Cl)cc3)cs2)CC1", "values": [
      {"measurement": "MIC80", "setting": "[1]", "result": "> 32", "unit": "µg/mL"}
    ]},
    {"molecule": "CCCc1cc(-c2nc(-c3ccnc(OC)c3)cs2)ccn1", "values": [
      {"measurement": "MIC80", "setting": "[1]", "result": 0.2, "unit": "µg/mL"}
    ]}
  ]
}
